Species: Rattus norvegicus
Test: Open TG-GATES - Regimen: Single
Assay type: toxicity, organism-based, Sprague-Dawley
Set-up: regimen Single, gender Male, age 6 weeks
Conditions: in vivo, po, 40 mg/kg, route gavage, dose level Low; for APTT / Bas / Eos / Fbg / Hb / Ht / Lym / MCH / MCHC / MCV / Mono / Neu / PT / Plat / RBC / Ret / WBC: tissue Blood; for KIDNEY_L / KIDNEY_R / KIDNEY_TOTAL: tissue Kidney; for LIVER: tissue Liver; for A/G / ALP / ALT / AST / BUN / CRE / Ca / Cl / DBIL / GLC / IP / K / LDH / Na / PL / RALB / TBIL / TC / TG / TP / gamma-GTP: tissue Plasma

Compound: COc1ccc(Cc2nccc3cc(OC)c(OC)cc23)cc1OC [PAPAVERINE]
- TERMINAL_BW (3 h): 231 g
- APTT (3 h): 22.7 s
- Bas (3 h): 0%
- Eos (3 h): 0.8%
- Fbg (3 h): 308.6 mg/dL
- Hb (3 h): 13.3 g/dL
- Ht (3 h): 39.9%
- Lym (3 h): 77%
- MCH (3 h): 20.8 pg
- MCHC (3 h): 33.4%
- MCV (3 h): 62.1 fL
- Mono (3 h): 2.2%
- Neu (3 h): 19%
- PT (3 h): 15.5 s
- Plat (3 h): 111.6 x10_4/uL
- RBC (3 h): 643.2 x10_4/ul
- Ret (3 h): 8.1%
- WBC (3 h): 104.1 x10_2/uL
- KIDNEY_L (3 h): 0.9 g
- KIDNEY_R (3 h): 0.9 g
- KIDNEY_TOTAL (3 h): 1.9 g
- LIVER (3 h): 10.4 g
- A/G (3 h): 1.2
- ALP (3 h): 1691.2 IU/L
- ALT (3 h): 41.2 IU/L
- AST (3 h): 79 IU/L
- BUN (3 h): 13.4 mg/dL
- CRE (3 h): 0.1 mg/dL
- Ca (3 h): 11.1 mg/dL
- Cl (3 h): 107.2 meq/L
- DBIL (3 h): 0 mg/dL
- GLC (3 h): 179 mg/dL
- IP (3 h): 7.7 mg/dL
- K (3 h): 4 meq/L
- LDH (3 h): 190.4 IU/L
- Na (3 h): 141.6 meq/L
- PL (3 h): 135 mg/dL
- RALB (3 h): 3 g/dL
- TBIL (3 h): 0.006 mg/dL
- TC (3 h): 75.2 mg/dL
- TG (3 h): 65.6 mg/dL
- TP (3 h): 5.4 g/dL
- gamma-GTP (3 h): 1.6 IU/L
- TERMINAL_BW (6 h): 221.8 g
- APTT (6 h): 21.2 s
- Bas (6 h): 0%
- Eos (6 h): 0.8%
- Fbg (6 h): 322.4 mg/dL
- Hb (6 h): 13.4 g/dL
- Ht (6 h): 39.9%
- Lym (6 h): 78.2%
- MCH (6 h): 20.7 pg
- MCHC (6 h): 33.7%
- MCV (6 h): 61.5 fL
- Mono (6 h): 2.8%
- Neu (6 h): 16.8%
- PT (6 h): 15.8 s
- Plat (6 h): 129.6 x10_4/uL
- RBC (6 h): 647.8 x10_4/ul
- Ret (6 h): 7.6%
- WBC (6 h): 105.5 x10_2/uL
- KIDNEY_L (6 h): 1 g
- KIDNEY_R (6 h): 1 g
- KIDNEY_TOTAL (6 h): 1.9 g
- LIVER (6 h): 9.4 g
- A/G (6 h): 1.2
- ALP (6 h): 1422 IU/L
- ALT (6 h): 36.2 IU/L
- AST (6 h): 72.4 IU/L
- BUN (6 h): 10.6 mg/dL
- CRE (6 h): 0.1 mg/dL
- Ca (6 h): 11.1 mg/dL
- Cl (6 h): 106.8 meq/L
- DBIL (6 h): 0.002 mg/dL
- GLC (6 h): 179.8 mg/dL
- IP (6 h): 8.9 mg/dL
- K (6 h): 4.3 meq/L
- LDH (6 h): 161.2 IU/L
- Na (6 h): 140.6 meq/L
- PL (6 h): 124.6 mg/dL
- RALB (6 h): 3 g/dL
- TBIL (6 h): 0.012 mg/dL
- TC (6 h): 71.4 mg/dL
- TG (6 h): 64 mg/dL
- TP (6 h): 5.4 g/dL
- gamma-GTP (6 h): 2.2 IU/L
- TERMINAL_BW (9 h): 221.9 g
- APTT (9 h): 21 s
- Bas (9 h): 0%
- Eos (9 h): 1%
- Fbg (9 h): 325 mg/dL
- Hb (9 h): 13.5 g/dL
- Ht (9 h): 40.5%
- Lym (9 h): 78.6%
- MCH (9 h): 20.4 pg
- MCHC (9 h): 33.4%
- MCV (9 h): 61.2 fL
- Mono (9 h): 3%
- Neu (9 h): 16.6%
- PT (9 h): 15.4 s
- Plat (9 h): 114.2 x10_4/uL
- RBC (9 h): 661.8 x10_4/ul
- Ret (9 h): 7.6%
- WBC (9 h): 78.8 x10_2/uL
- KIDNEY_L (9 h): 1 g
- KIDNEY_R (9 h): 1 g
- KIDNEY_TOTAL (9 h): 1.9 g
- LIVER (9 h): 9.4 g
- A/G (9 h): 1.3
- ALP (9 h): 1463.2 IU/L
- ALT (9 h): 37 IU/L
- AST (9 h): 70.2 IU/L
- BUN (9 h): 11 mg/dL
- CRE (9 h): 0.1 mg/dL
- Ca (9 h): 11.1 mg/dL
- Cl (9 h): 107.4 meq/L
- DBIL (9 h): 0 mg/dL
- GLC (9 h): 183.6 mg/dL
- IP (9 h): 9.2 mg/dL
- K (9 h): 4 meq/L
- LDH (9 h): 150.2 IU/L
- Na (9 h): 140.6 meq/L
- PL (9 h): 133.6 mg/dL
- RALB (9 h): 3 g/dL
- TBIL (9 h): 0.02 mg/dL
- TC (9 h): 73.2 mg/dL
- TG (9 h): 69.8 mg/dL
- TP (9 h): 5.4 g/dL
- gamma-GTP (9 h): 1.6 IU/L
- TERMINAL_BW (24 h): 234.3 g
- APTT (24 h): 21.8 s
- Bas (24 h): 0%
- Eos (24 h): 0.8%
- Fbg (24 h): 309.2 mg/dL
- Hb (24 h): 13.5 g/dL
- Ht (24 h): 40.7%
- Lym (24 h): 82.6%
- MCH (24 h): 21.3 pg
- MCHC (24 h): 33.3%
- MCV (24 h): 63.9 fL
- Mono (24 h): 2.4%
- Neu (24 h): 13.2%
- PT (24 h): 16.3 s
- Plat (24 h): 114.1 x10_4/uL
- RBC (24 h): 636.4 x10_4/ul
- Ret (24 h): 7.1%
- WBC (24 h): 90.3 x10_2/uL
- KIDNEY_L (24 h): 1 g
- KIDNEY_R (24 h): 1 g
- KIDNEY_TOTAL (24 h): 2 g
- LIVER (24 h): 10.8 g
- A/G (24 h): 1.3
- ALP (24 h): 1546.4 IU/L
- ALT (24 h): 47 IU/L
- AST (24 h): 79 IU/L
- BUN (24 h): 16.2 mg/dL
- CRE (24 h): 0.1 mg/dL
- Ca (24 h): 10.6 mg/dL
- Cl (24 h): 107.4 meq/L
- DBIL (24 h): 0 mg/dL
- GLC (24 h): 195.4 mg/dL
- IP (24 h): 6.9 mg/dL
- K (24 h): 4.4 meq/L
- LDH (24 h): 207.6 IU/L
- Na (24 h): 142.8 meq/L
- PL (24 h): 126.6 mg/dL
- RALB (24 h): 3.1 g/dL
- TBIL (24 h): 0.004 mg/dL
- TC (24 h): 67.6 mg/dL
- TG (24 h): 123 mg/dL
- TP (24 h): 5.4 g/dL
- gamma-GTP (24 h): 1.2 IU/L

Reference: ChEMBL document CHEMBL3885861, “Open TG-GATES”
